Data reported in patent US11596649B2, “Composition in powder form comprising iron and probiotic bacteria” (NESTEC S.A., priority 2016, dated 2023).
Like-named read-outs stand apart in the source and are kept apart here.

Tests used:
[1] = in human; Hurrell, Iron Fortification of Foods, 1985; cited from earlier work
[2] = test system: probiotic bacteria; experiment: Viability of probiotic bacteria with added iron source (general finding); format: cell-based; settings: iron source in powder composition with probiotic bacteria, at reconstitution
[3] = test system: Lactobacillus rhamnosus (deposited as CGMCC 1.3724); settings: 10 and 30 mg Fe2+ per 100 g maltodextrin model composition, FIG. 1
Procedure: (§1) The maltodextrin, the dried probiotic powder and the iron source were added together in a 500 mL plastic beaker and mixed for 5 minutes at 34 rpm using a Turbula® T2F dry mixer (WAB, Switzerland). An amount of 25 g of freshly mixed sample was diluted 1/10 in an aqueous tryptone salt solution supplemented with anti-foaming agent at 37° C. After 5 minutes of homogenization using a Masticator® (IUL, Spain), decimal dilutions were performed. The appropriate dilution resulting in 30-300 colonies after incubation was then transferred to a petri dish and mixed with MRS agar according to the pour plate method. Once solidified the plates were incubated at 37° C. under aerobic conditions. After 48 h of incubation the colonies present on the plates were counted.

[4] = test system: Lactobacillus rhamnosus (deposited as CGMCC 1.3724); settings: FIG. 4; for loss of live L. rhamnosus in the reconstituted compositions: 10 and 30 mg Fe2+ per 100 g infant formula powder (Nestogen 1)
Procedure: An amount of 25 g of freshly mixed sample was diluted 1/10 in an aqueous tryptone salt solution supplemented with anti-foaming agent at 37° C. After 5 minutes of homogenization using a Masticator® (IUL, Spain), decimal dilutions were performed. The appropriate dilution resulting in 30-300 colonies after incubation was then transferred to a petri dish and mixed with MRS agar according to the pour plate method. Once solidified the plates were incubated at 37° C. under aerobic conditions. After 48 h of incubation the colonies present on the plates were counted.

[5] = test system: Bifidobacterium longum (deposited as ATCC BAA-999); settings: FIG. 5; for loss of live Bifidobacterium longum in the reconstituted compositions: 25 and 50 mg Fe2+ per 100 g infant formula powder (Nestogen 1)
Procedure: The Samples were produced as follows. The infant formula powder, the dried probiotic powder and the iron source were added together in a 500 mL plastic beaker and mixed for 5 minutes at 34 rpm using a Turbula® T2F dry mixer (WAB, Switzerland). An amount of 25 g of freshly mixed sample was diluted 1/10 in an aqueous tryptone salt solution supplemented with anti-foaming agent at 37° C. After 5 minutes of homogenization using a Masticator® (IUL, Spain), decimal dilutions were performed. The appropriate dilution resulting in 30-300 colonies after incubation was then transferred to a petri dish and mixed with RCA agar according to the pour plate method. Once solidified the plates were incubated at 37° C. under anaerobic conditions. After 48 h of incubation the colonies present on the plates were counted.

[6] = test system: Bifidobacterium longum (deposited as ATCC BAA-999); settings: 5, 25 and 50 mg Fe2+ per 100 g maltodextrin model composition, FIG. 2
Procedure: The Samples were produced as follows. The maltodextrin, the dried probiotic powder and the iron source were added together in a 500 mL plastic beaker and mixed for 5 minutes at 34 rpm using a Turbula® T2F dry mixer (WAB, Switzerland). An amount of 25 g of freshly mixed sample was diluted 1/10 in an aqueous tryptone salt solution supplemented with anti-foaming agent at 37° C. After 5 minutes of homogenization using a Masticator® (IUL, Spain), decimal dilutions were performed. The appropriate dilution resulting in 30-300 colonies after incubation was then transferred to a petri dish and mixed with RCA agar according to the pour plate method. Once solidified the plates were incubated at 37° C. under anaerobic conditions. After 48 h of incubation the colonies present on the plates were counted.

[7] = test system: Lactobacillus paracasei (deposited as CNCM I-2116); experiment: Survival of Lactobacillus paracasei on reconstitution, maltodextrin model composition (Example 3, plate count); format: cell-based; settings: 5, 25 and 50 mg Fe2+ per 100 g maltodextrin model composition, FIG. 3
Procedure: as §1

[8] = in rat; Hurrell, Iron Fortification of Foods, 1985; cited from earlier work

Molecule	average bioavailability [1] [%]	loss of viability of probiotic bacteria [2]	loss of live L. rhamnosus in the reconstituted compositions [3]	loss of live L. rhamnosus in the reconstituted compositions [4]	loss of live Bifidobacterium longum in the reconstituted compositions [5]	loss of live Bifidobacterium longum in the reconstituted compositions [6]	loss of viable Lactobacillus rhamnosus compared with dissolved ferrous sulphate in spray-dried form ([3]; both iron concentrations)	loss of viable Lactobacillus rhamnosus compared with dissolved ferrous sulphate in spray-dried form ([4]; 10 and 30 mg Fe2+ per 100 g infant formula composition, both iron concentrations)	loss of viable Bifidobacterium longum compared with dissolved ferrous sulphate in spray-dried form ([5]; 25 and 50 mg Fe2+ per 100 g infant formula composition, all iron concentrations)	loss of viable Bifidobacterium longum compared with dissolved ferrous sulphate in spray-dried form ([6]; all iron concentrations)	loss of live Lactobacillus paracasei in the reconstituted compositions [7]	loss of viable Lactobacillus paracasei compared with dissolved ferrous sulphate in spray-dried form ([7]; all iron concentrations)	bioavailability [8] [%]
O=C([O-])CC(O)(CC(=O)O)C(=O)[O-].[Fe+2] [ferrous citrate]	74	do not significantly impair											
O.O.O.O.O.O.O.O=S(=O)([O-])[O-].[Fe+2] [ferrous sulphate heptahydrate, reference compound]		significant loss	significant loss	significant loss	significant loss	significant loss							
O.O=S(=O)([O-])[O-].[Fe+2] [ferrous sulphate monohydrate]		no significant loss	no significant loss	no significant loss	no significant loss	no significant loss	significantly lower	significantly lower	significantly lower	significantly lower	no significant loss	significantly lower	
ferric citrate	31	do not significantly impair											75
